Patent US8420810B2, “Bicyclic heterocyclic compound” (Ono Pharmaceutical, Co., Ltd., priority 2007, dated 2013)

Experiments:
[1] = Stability test under acidic condition; assay type: physicochemical; conditions: ethanol solution / Pharmacopoeia first liquid 1 to 1, 37° C., 24 hours, HPLC
Experimental: A 1 mg/ml ethanol solution of an evaluation compound and the test liquid first liquid of the disintegration test of The Pharmacopoeia of Japan (to be referred to as Pharmacopoeia first liquid hereinafter) were mixed at a ratio of 1 to 1 (0.5 ml for each) and stirred at 37° C. for 24 hours. Amount of the evaluation compound at 0 minute or after 24 hours was determined by an HPLC apparatus. Survival rate (%) of the evaluation compound was calculated by the following formula. Survival rate of evaluation compound (%)=amount of evaluation compound after 24 hours of treatment with Pharmacopoeia first liquid/amount of evaluation compound just after treatment with Pharmacopoeia first liquid×100 <HPLC Conditions> • Apparatus: A 1200 series (manufactured by Agilent Technologies, Inc.), • Column: YMC-Pack C4, A-802, 150×4.6 mm I.D., S-5 μm, 120 A (manufactured by YMC), • Mobile phase: A: water, B: acetonitrile, A/B: 35/65, • Column temperature: room temperature, • Flow rate: 1.0 mL/min.

Light stability test = assay type: physicochemical; conditions: 2500 Lux (D65 lamp), 25° C., HPLC
Experimental: After weighing 5 mg of an evaluation compound, it was put into a test tube made of glass which was then sealed with a stop cock. Said test tube was stored at 25° C. for 11 days or 20 days under irradiation of 2500 Lux (a D65 lamp was used as the light source). The evaluation compound after 11 days or 20 days of irradiation was determined by an HPLC apparatus. Survival rate (%) of the evaluation compound was calculated by the following formula. Survival rate of evaluation compound (%)=amount of evaluation compound after 11 days or 20 days of irradiation (mg)/weighed value of evaluation compound (mg)×100 <HPLC Conditions> • Apparatus: A 1200 series (manufactured by Agilent Technologies, Inc.), • Column: YMC-Pack C4, A-802, 150×4.6 mm I.D., S-5 μm, 120 A (manufactured by YMC), • Mobile phase: A: water, B: acetonitrile, A/B: 35/65, • Column temperature: room temperature, • Flow rate: 1.0 mL/min.

human CRF receptor I [2] = target: T1, human CRF receptor I (Homo sapiens, UniProt P34998); assay: Binding assay (125I-CRF, membrane fraction); conditions: 125I-CRF 0.25 nM, membrane fraction of CHO-K1 cells expressing human CRF receptor I, room temperature 2 hours
T1 construct: expressed in transfected cells; host or cells: CHO-K1
T1 sequence (P34998 24-415): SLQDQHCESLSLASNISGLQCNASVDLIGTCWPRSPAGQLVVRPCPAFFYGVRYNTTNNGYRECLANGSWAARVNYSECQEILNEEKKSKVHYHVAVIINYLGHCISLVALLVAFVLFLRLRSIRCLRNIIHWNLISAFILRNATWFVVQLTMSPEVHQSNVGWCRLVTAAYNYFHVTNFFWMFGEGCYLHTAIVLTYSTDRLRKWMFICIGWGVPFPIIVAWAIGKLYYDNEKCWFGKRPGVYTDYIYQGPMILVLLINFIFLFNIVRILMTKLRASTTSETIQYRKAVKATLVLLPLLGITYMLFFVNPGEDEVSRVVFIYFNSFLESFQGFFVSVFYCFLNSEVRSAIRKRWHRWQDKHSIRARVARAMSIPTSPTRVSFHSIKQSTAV
Experimental: The forced-expression cell strain of the human CRF receptor I (parent strain is CHO-K1 cell) was cultured until the cell was confluent and collected with a scraper. The collected cells were washed twice with PBS, and were suspended with an ice-colded binding assay buffer (Tris-HCl (50 mM, pH 7.0), EDTA (2 mM, pH 8.0), and MgCl2 (10 mM)). After fractured with a dounce-type homogenizer, the suspended cells were centrifuged at 10,000 g, and a membrane fraction was collected. The collected membrane fraction was resuspended with a little amount of the binding assay buffer, thereafter diluted with the binding assay buffer so as to have a concentration of 1 mg/mL. The obtained membrane fraction was used for a binding assay.
^125I-CRF was diluted with the binding assay buffer so as to have a concentration of 0.5 nM, whereby 50 μL of the diluted ^125I-CRF was added to a siliconized 1.5 mL tube. Next, evaluation compounds diluted at appropriate times, DMSO (for general binding), or 100 μM of CRF (for non-specific binding), was added to a […]. Finally, 50 μL of the membrane fraction was added thereto and the reaction was started (final concentration of ^125I-CRF was 0.25 nM). The tube was incubated at room temperature for 2 hours. After the reaction, the tube was centrifuged at 20,000 g in order to collect the membrane fraction. The supernatant was discarded, and the pellet was washed with an ice-colded PBS/0.01% TritonX-100. A membrane binding count was measured using a y counter. The specific binding count was obtained by subtracting the non-specific count from the measured count.

human CRF receptor I [3] = target: T1, human CRF receptor I; assay: Receptor antagonistic activity (cyclic AMP assay); assay type: cell-based; conditions: accumulated cyclic AMP, human/rat CRF stimulation, cells expressing human CRF receptor I, 37° C. 15 minutes
Experimental: The forced expression cell strain of the human CRF receptor I was cultured at 37° C. under 5% carbon dioxide and 95% air by using a Ham's F-12 medium (F-12 nutrient mixture) containing 10% bovine fetal serum and 1% antibiotic substance-antifungal agent. On the previous day before the cyclic AMP was measured, the cells were inoculated into a 96-well plate in an amount of 1×10^4 cell/well. On the measurement day, the cells were washed twice with a Ham's F-12 medium, whereby a solution of Ham's F-12 medium/1 mM 3-isobutyl-1-methylxanthine (assay medium) (178 μL) was added to each well. After the incubation at 37° C. for 15 minutes, the solutions (2 μL) of evaluation compound in various concentrations were added thereto, or DMSO (2 μL) was added to a CRF group and a blank group. An assay medium (20 μL) containing 10 nM human/rat CRF was added to wells of an evaluation compound group and the CRF group. An assay medium (20 μL) containing 0.00001% acetic acid was added to the blank group. Each group was further incubated at 37° C. for 15 minutes. The supernatant was removed and ice-colded to stop the reaction. Note that the reactions of 2 wells were the same in all reactions. The measurement for accumulated cyclic AMP amount in cells was carried out by using a cyclic AMP Biotrak enzyme immunoassay system (manufactured by GE Healthcare). The accumulated cyclic AMP amounts were calculated by subtracting mean values of corresponding 2 wells in the blank group from that of 2 wells. The IC50 values were calculated with non-linear regression analysis by defining logarithm concentration of the evaluation compound as independent variable and an accumulated cyclic AMP amount as dependent variable.

Male Wistar rats = assay: Water aversive stress model in rats; assay type: in vivo, rat; conditions: 3 mg/kg, oral once 30 minutes before stress, 60 minutes after loading the water aversive stress
Experimental: Male Wistar rats of 7 weeks of age were used in the test. A platform of 8.5 cm in diameter and 11 cm in height was arranged in the center of a plastic container (30 cm in length, 45 cm in width, 37 cm in height), and water was filled therein to a depth of about 10 cm. Each rat was put on the platform, and the number of evacuations was counted 5, 30 and 60 minutes thereafter. To the vehicle group, 20% Wellsolve (registered trademark) was orally administered, and an evaluation compound having varied concentrations was orally administered to the evaluation compound group, once 30 minutes before loading the water aversive stress. The dose was set to be 5 ml/kg for both cases.

| residual ratio [1] | residual ratio after 20 days (Light stability test) | IC50 (human CRF receptor I [2]) | IC50 (human CRF receptor I [3]) | SMILES | increase of the number of evacuations for the vehicle group (Male Wistar rats) |
| --- | --- | --- | --- | --- | --- |
| 90% | 93% |  |  | CCC(CC)c1cc(C)n2nc(-c3ccc(OC)cc3C)n(C)c(=O)c12 [Example 8(1), 5-(1-ethylpropyl)-2-(4-methoxy-2-methylphenyl)-3,7-dimethylpyrrolo[2,1-f][1,2,4]triazin-4(3H)-one] |  |
|  |  | 4.5 nM | 2.1 nM | CCn1c(-c2ccc(SC)cc2Cl)nn2c(C)cc(C(C)C)c2c1=O [Example 14(2), 2-[2-chloro-4-(methylthio)phenyl]-3-ethyl-5-isopropyl-7-methylpyrrolo[2,1-f][1,2,4]triazin-4(3H)-one] | significantly inhibited |
